Measured values published in ChEMBL document CHEMBL3392998 (J Med Chem, 2014).

Tests used:
[1] = molecular target: Human immunodeficiency virus type 1 protease (Human immunodeficiency virus 1, UniProt Q72874, A71V/G73S/I84V/L10I/L63P/L90M); assay: Inhibition of multidrug resistant HIV-1 protease L10I/L63P/A71V/G73S/I84V/L90M mutant using fluorogenic peptide substrate incubated for 30 mins prior to substrate addition measured after 10 mins by FRET assay
Protease = Protease (Human immunodeficiency virus 1, UniProt Q9YQ12); assay: Inhibition of wild-type HIV-1 protease using fluorogenic peptide substrate incubated for 30 mins prior to substrate addition measured after 10 mins by FRET assay
Protease, sequence (Q9YQ12 whole entry): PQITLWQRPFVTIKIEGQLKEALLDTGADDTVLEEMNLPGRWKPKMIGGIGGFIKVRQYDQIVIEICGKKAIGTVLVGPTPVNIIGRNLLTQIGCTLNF

Human immunodeficiency virus type 1 protease, sequence (Q72874 entry or part of it A71V/G73S/I84V/L10I/L63P/L90M): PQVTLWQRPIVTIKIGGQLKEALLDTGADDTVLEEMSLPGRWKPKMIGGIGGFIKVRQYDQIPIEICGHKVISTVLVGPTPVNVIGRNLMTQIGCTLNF

In the case of `O=C1c2cccc([N+](=O)[O-])c2C(=O)N1c1ccc2[nH]c(=S)sc2c1`, the Ki [1] is reported as 91 µM and the Ki (Protease) is reported as 96 µM.
